How the values were obtained:
Assay type in all cases: cell-based
MIA PaCa-2 cells [1] = experiment: KP372-1 + BMN 673 combination survival / synergy (CompuSyn); conditions: Fa=0.9; 0.075 μM KP372-1 + 1 μM BMN 673 in combination
Description: DNA content assay: A modified cell survival assay measuring DNA content over ˜7-day period was utilized. Cells were seeded at 10,000 cells/well in 48-well plates in 0.5 mL of media. The next day, media were aspirated and replaced with 0.5 mL media containing the indicated concentrations of KP372-1 (μM) alone or in combination with 50 μM DIC. The cells were exposed for 2 hours (2 h) and the media were again aspirated and replaced with fresh media (without KP372-1). The cells were then allowed to grow for ˜7 days or until control samples became confluent. Cells were then lysed in 250 μl dI water, then freeze-thawed followed by suspension in 0.5 mL 1× TNE buffer containing Hoechst 33258 fluorescent dye. The DNA content was determined by measuring florescence signal using a Victor X5 plate reader. Fluorescence values of treated samples were normalized to that of control samples and plotted as means±SEM for treated over control (i.e., DMSO) treated (T/C) samples. […]
Synergy calculations: Drug synergy was calculated using CompuSyn 1.0 software (www.combosyn.com). […] Then, cell survival was assessed via DNA content assay similarly to as described above. […] Dose-Reduction Index (DRI) values were calculated using the Chou-Talalay method. Briefly, DRI values are calculated using the following equation: DRI=(Dx)1/(D)1 where (Dx)1 is the dose of the drug alone and (D)1 is the dose of the drug in combination. […]

MIA PaCa-2 cells [2] = experiment: DNA content assay (relative survival), MIA PaCa-2; conditions: 2 h
Description: (§1) DNA content assay: A modified cell survival assay measuring DNA content over ˜7-day period was utilized. Cells were seeded at 10,000 cells/well in 48-well plates in 0.5 mL of media. […] The cells were exposed for 2 hours (2 h) and the media were again aspirated and replaced with fresh media (without KP372-1). The cells were then allowed to grow for ˜7 days or until control samples became confluent. […] The DNA content was determined by measuring florescence signal using a Victor X5 plate reader. Fluorescence values of treated samples were normalized to that of control samples and plotted as means±SEM for treated over control (i.e., DMSO) treated (T/C) samples. The reported values are the results of the following sample sizes for KP372-1±DIC: MIA PaCa-2 concentration (n=5); Capan-2 concentration (n=3); MIA PaCa-2±siSCR/siNQO1 (n=3); hTERT-HPNE (n=3); PANC-1 (n=3); AsPC-1 (n=4); BxPC-3 (n=3); MIA PaCa-2 time (n=3); Capan-2 time (n=3). The reported values are the results of the following sample sizes for β-lap±DIC: MIA PaCa-2 (n=4) and Capan-2 (n=4).

Capan-2 cells = experiment: DNA content assay (relative survival), Capan-2; conditions: 2 h
Description: as §1

| Compound | dose reduction index (DRI) (MIA PaCa-2 cells [1]) | concentration up to which no appreciable toxicity was induced (MIA PaCa-2 cells [2]) | concentration up to which no appreciable toxicity was induced (Capan-2 cells) |
| --- | --- | --- | --- |
| Cn1ncnc1[C@H]1c2n[nH]c(=O)c3cc(F)cc(c23)N[C@@H]1c1ccc(F)cc1 [BMN 673, talazoparib] | 3.99 |  |  |
| CC1(C)CCC2=C(O1)c1ccccc1C(=O)C2=O [β-lap, β-lapachone] |  | up to 2.0 μM | up to 1.0 μM |

Reference: patent US12128050B2, “KP372-1-induced DNA damage as a chemotherapeutic approach to treat cancer” (New Mexico Tech University Research Park Corporation, priority 2020, dated 2024)
